Literature values in paper PMC9516332 (Frontiers in Oncology, 2022).
Where two headings read alike, the source gives them in different places.

Columns and labels:
Conditions in all cases: cited from earlier work
[1] = biological target: T1, panel of 255 wild-type kinases (Homo sapiens, UniProt O15264)
T1 sequence (O15264 1-365): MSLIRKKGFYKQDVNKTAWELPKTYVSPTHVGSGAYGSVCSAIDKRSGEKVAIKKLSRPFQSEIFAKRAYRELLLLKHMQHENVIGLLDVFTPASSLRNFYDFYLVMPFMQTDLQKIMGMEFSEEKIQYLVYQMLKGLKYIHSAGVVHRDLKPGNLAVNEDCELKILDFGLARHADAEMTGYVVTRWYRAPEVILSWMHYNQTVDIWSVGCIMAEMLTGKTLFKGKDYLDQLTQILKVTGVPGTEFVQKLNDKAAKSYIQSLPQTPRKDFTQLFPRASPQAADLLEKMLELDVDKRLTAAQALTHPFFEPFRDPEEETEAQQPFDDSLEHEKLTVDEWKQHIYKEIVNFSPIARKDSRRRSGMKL

[2] = biological target: panel of 255 wild-type kinases (Homo sapiens, UniProt P51957)
[3] = biological target: T2, panel of 255 wild-type kinases (Homo sapiens, UniProt Q02156)
T2 sequence (Q02156 1-737): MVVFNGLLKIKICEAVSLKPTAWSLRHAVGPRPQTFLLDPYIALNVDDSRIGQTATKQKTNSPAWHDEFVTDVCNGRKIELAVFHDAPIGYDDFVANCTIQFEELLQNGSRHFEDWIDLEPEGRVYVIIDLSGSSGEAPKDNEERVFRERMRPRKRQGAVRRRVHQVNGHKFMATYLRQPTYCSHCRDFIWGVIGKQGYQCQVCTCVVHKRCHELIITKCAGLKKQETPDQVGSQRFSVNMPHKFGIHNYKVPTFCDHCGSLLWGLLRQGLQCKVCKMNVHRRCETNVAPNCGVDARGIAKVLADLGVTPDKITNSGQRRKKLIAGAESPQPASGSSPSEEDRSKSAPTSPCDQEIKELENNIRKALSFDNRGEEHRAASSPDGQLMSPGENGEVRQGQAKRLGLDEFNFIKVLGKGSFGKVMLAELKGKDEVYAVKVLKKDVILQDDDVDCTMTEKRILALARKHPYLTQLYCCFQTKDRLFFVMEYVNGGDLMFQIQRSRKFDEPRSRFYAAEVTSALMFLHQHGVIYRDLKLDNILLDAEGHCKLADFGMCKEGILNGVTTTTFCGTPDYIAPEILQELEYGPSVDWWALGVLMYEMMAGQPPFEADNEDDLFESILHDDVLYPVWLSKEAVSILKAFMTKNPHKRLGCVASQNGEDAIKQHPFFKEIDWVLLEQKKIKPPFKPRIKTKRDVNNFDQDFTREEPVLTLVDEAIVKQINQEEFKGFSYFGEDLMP

[4] = biological target: T3, panel of 255 wild-type kinases (Homo sapiens, UniProt Q8IWQ3)
T3 sequence (Q8IWQ3 1-736): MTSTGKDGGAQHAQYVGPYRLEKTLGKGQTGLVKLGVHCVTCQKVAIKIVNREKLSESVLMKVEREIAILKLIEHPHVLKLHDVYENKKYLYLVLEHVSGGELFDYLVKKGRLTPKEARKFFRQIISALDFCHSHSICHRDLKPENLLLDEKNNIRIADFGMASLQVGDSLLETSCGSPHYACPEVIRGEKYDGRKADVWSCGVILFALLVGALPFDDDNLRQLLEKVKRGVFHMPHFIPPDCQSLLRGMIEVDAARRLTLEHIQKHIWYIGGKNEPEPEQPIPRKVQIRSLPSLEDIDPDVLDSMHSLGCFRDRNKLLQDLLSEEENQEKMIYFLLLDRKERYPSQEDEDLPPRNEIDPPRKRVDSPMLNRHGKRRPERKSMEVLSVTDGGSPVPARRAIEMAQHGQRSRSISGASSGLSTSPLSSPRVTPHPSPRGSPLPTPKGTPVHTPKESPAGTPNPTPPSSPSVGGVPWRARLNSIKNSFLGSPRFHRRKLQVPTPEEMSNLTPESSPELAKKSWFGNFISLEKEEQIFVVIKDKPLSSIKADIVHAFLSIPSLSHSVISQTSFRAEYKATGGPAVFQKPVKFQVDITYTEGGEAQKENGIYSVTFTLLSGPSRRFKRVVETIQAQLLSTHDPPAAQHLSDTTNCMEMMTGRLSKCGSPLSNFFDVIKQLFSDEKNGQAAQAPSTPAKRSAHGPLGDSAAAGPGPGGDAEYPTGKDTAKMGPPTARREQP

[5] = biological target: panel of 255 wild-type kinases (Homo sapiens, UniProt Q9HC98)
[6] = biological target: panel of 255 wild-type kinases (Homo sapiens, UniProt Q9Y5S2)
[7] = p38δ, 1 µmol/L single concentration, ref DOI: 10.1158/1535-7163.MCT-18-0877
[8] = NEK4, 1 µmol/L single concentration, ref DOI: 10.1158/1535-7163.MCT-18-0877
[9] = kinase PKCε, 1 µmol/L single concentration, ref DOI: 10.1158/1535-7163.MCT-18-0877
[10] = BRSK2 kinase assay, 1 µmol/L single concentration, ref DOI: 10.1158/1535-7163.MCT-18-0877
[11] = NEK6, 1 µmol/L single concentration, ref DOI: 10.1158/1535-7163.MCT-18-0877
[12] = MRCKβ, 1 µmol/L single concentration, ref DOI: 10.1158/1535-7163.MCT-18-0877
[13] = p38δ, 1 µmol/L single concentration, ref DOI: 10.1371/journal.pone.0092146
[14] = NEK4, 1 µmol/L single concentration, ref DOI: 10.1371/journal.pone.0092146
[15] = kinase PKCε, 1 µmol/L single concentration, ref DOI: 10.1371/journal.pone.0092146
[16] = BRSK2 kinase assay, 1 µmol/L single concentration, ref DOI: 10.1371/journal.pone.0092146
[17] = NEK6, 1 µmol/L single concentration, ref DOI: 10.1371/journal.pone.0092146
[18] = MRCKβ, 1 µmol/L single concentration, ref DOI: 10.1371/journal.pone.0092146

Structure (SMILES)	%-inhibition, p38δ [1, 7] [%]	%-inhibition, NEK4 [2, 8] [%]	%-inhibition at 1 µmol/L, PKCε [3, 9] [%]	%-inhibition BRSK2 [4, 10] [%]	%-inhibition, NEK6 [5, 11] [%]	%-inhibition, MRCKβ [6, 12] [%]	%-inhibition, p38δ [1, 13] [%]	%-inhibition, NEK4 [2, 14] [%]	%-inhibition at 1 µmol/L, PKCε [3, 15] [%]	%-inhibition BRSK2 [4, 16] [%]	%-inhibition, NEK6 [5, 17] [%]	%-inhibition, MRCKβ [6, 18] [%]	other results
C=CC(=O)N1CCC[C@@H](n2nc(-c3ccc(Oc4ccccc4)cc3)c3c(N)ncnc32)C1 [ibrutinib]	-3.68	4.65	8	16	0.77	-7.55							
CC(=O)Nc1cccc(-n2c(=O)n(C3CC3)c(=O)c3c(Nc4ccc(I)cc4F)n(C)c(=O)c(C)c32)c1 [trametinib]							-2.7	2	6	5.38	-0.324	-2.56	
Cc1cc(Nc2ncc(Cl)c(Nc3ccccc3S(=O)(=O)C(C)C)n2)c(OC(C)C)cc1C1CCNCC1 [ceritinib]	3	-3.48	11	24	0.593	-0.678							
C[C@@H](Oc1cc(-c2cnn(C3CCNCC3)c2)cnc1N)c1c(Cl)ccc(F)c1Cl [crizotinib]							-3.41	4.57	-7	8	-2.72	-2	
C=CC(=O)Nc1cc(Nc2nccc(-c3cn(C)c4ccccc34)n2)c(OC)cc1N(C)CCN(C)C [osimertinib]	-5.38	6	-12	-0.439	0.319	12							
CCCS(=O)(=O)Nc1ccc(F)c(C(=O)c2c[nH]c3ncc(-c4ccc(Cl)cc4)cc23)c1F [vemurafenib]							8	-0.416	-8	-6	-1.43	-5	
O=C(c1ccc(F)c(F)c1Nc1ccc(I)cc1F)N1CC(O)([C@@H]2CCCCN2)C1 [cobimetinib]	-6	5	4.22	3	1.81	0.0776							
CC(C)(C)c1nc(-c2cccc(NS(=O)(=O)c3c(F)cccc3F)c2F)c(-c2ccnc(N)n2)s1 [dabrafenib]							-3.43	4	5	30	-3	-2.85	
CO[C@@H]1[C@H](N(C)C(=O)c2ccccc2)C[C@H]2O[C@]1(C)n1c3ccccc3c3c4c(c5c6ccccc6n2c5c31)C(=O)NC4 [midostaurin]	3.36	26	84	90	-8	18							
CC#CC(=O)N1CCC[C@H]1c1nc(-c2ccc(C(=O)Nc3ccccn3)cc2)c2c(N)nccn12 [acalabrutinib]	-1.74	-4.76	-9	-10	-5.54	-16							
CCc1cc2c(cc1N1CCC(N3CCOCC3)CC1)C(C)(C)c1[nH]c3cc(C#N)ccc3c1C2=O [alectinib]	0.128	-1.16	10	-2.35	1.43	-5							
COc1cc(N2CCC(N3CCN(C)CC3)CC2)ccc1Nc1ncc(Cl)c(Nc2ccccc2P(C)(C)=O)n1 [brigatinib]													%-inhibition, p38δ [1]: 0.87%; %-inhibition, NEK4 [2]: 25%; %-inhibition at 1 µmol/L, PKCε [3]: 39%; %-inhibition BRSK2 [4]: 77%; %-inhibition, NEK6 [5]: 0.534%; %-inhibition, MRCKβ [6]: 38%
